US20240252517A1, “MINERALOCORTICOID RECEPTOR ANTAGONISTS FOR THE PREVENTION AND/OR TREATMENT OF A CORONAVIRUS INFECTION” (Imaginatives Group Limited, priority 2021, published 2024)

Legend:
endothelial cells = conditions: MR activation; result in words; cited from earlier work
COVID-19 = conditions: cited from earlier work

C[C@@H]1C[C@H]2[C@@H]3CCC4=CC(=O)C=C[C@]4(C)[C@@]3(F)[C@@H](O)C[C@]2(C)[C@@]1(O)C(=O)CO [HIDEX, dexamethasone]
Resorption of pneumonia on day 5 (number of patients) (SARS-CoV-2; 120 h): 15 | Fasting glucose (SARS-CoV-2; after 5 d, mean ± SD, baseline HIDEX 5.9 ± 2.0, SPIDEX 6.89 ± 3.22): 11.69 ± 6.21 mmol/L | Breath rate/min (SARS-CoV-2; after 5 d, mean ± SD, baseline HIDEX 24.8 ± 4.6, SPIDEX 24.2 ± 4.1): 18.4 ± 3.1 min⁻¹ | CRP (SARS-CoV-2; after 5 d, mean ± SD, baseline HIDEX 72.4 ± 61.7, SPIDEX 65.75 ± 50.9): 28.1 ± 22.9 mg/L | HR/min (SARS-CoV-2; after 5 d, mean ± SD, baseline HIDEX 84.7 ± 10.8, SPIDEX 83.8 ± 11.8): 89.1 ± 10.6 min⁻¹ | BPdiast., mm Hg (SARS-CoV-2; after 5 d, mean ± SD, baseline HIDEX 86 ± 8.6, SPIDEX 85.25 ± 12.40): 89.0 ± 10.6 mm Hg | Blood oxygen, % (SARS-CoV-2; after 5 d, mean ± SD, baseline HIDEX 91.8 ± 3.6, SPIDEX 91.7 ± 3.3): 94.1 ± 3.0% | D-dimer (SARS-CoV-2; after 5 d, mean ± SD, baseline HIDEX 736.7 ± 680.6, SPIDEX 755.5 ± 606.1): 574.8 ± 306.4 ng/mL | CRP, mg/l (range in brackets) (SARS-CoV-2; after 5 d, range, baseline HIDEX 6.4-204, SPIDEX 10.2-209): (2.8-83.5) mg/l | D-dimer, ng/ml (range in brackets) (SARS-CoV-2; after 5 d, range, baseline HIDEX 85-2500, SPIDEX 145-2500): (38-2800) ng/ml | Fasting blood glucose compared to baseline (SARS-CoV-2; after 5 d, result in words): significantly elevated | Loss of smell/taste, % of patients (SARS-CoV-2; after 5 days treatment, baseline 85% (spironolactone/low dose dexamethasone), 82.5% (high dose dexamethasone)): 75% | BPsyst., mm Hg (SARS-CoV-2; after 5 d of treatment, mean ± SD, baseline HIDEX 139.6 ± 15.5, SPIDEX 137.5 ± 22.5): 150.1 ± 20.1 mm Hg | Deaths (number of patients) (SARS-CoV-2; of 40 patients per group): 1 | Deterioration of the Chest X-ray picture assessed on the 5th day (number of patients) (SARS-CoV-2; of 40 patients per group): 4

CC(=O)S[C@@H]1CC2=CC(=O)CC[C@]2(C)[C@H]2CC[C@@]3(C)[C@@H](CC[C@@]34CCC(=O)O4)[C@H]12 [spironolactone]
Exocytosis of Weibel-Palade bodies / Von Willebrand Factor (endothelial cells): blocked

C[C@]12CCC(=O)C=C1C=C[C@@H]1[C@@H]2CC[C@@]2(C)[C@H]1CC[C@@]21CCC(=O)O1 [canrenone]
Patients requiring ventilation (COVID-19; group B given canrenone, group A 49%): 20% | Mortality (COVID-19; group B given canrenone, group A conventional treatment 36%): 13% | D-Dimer levels (COVID-19; result in words, rose significantly in control group): fell
